Literature values as cited in patent US20080039428A1, “Antiretroviral combination therapy” (Panacos Pharmaceuticals, Inc., priority 2006, published 2008).

System: HIV

## C=C(C)[C@@H]1CC[C@]2(C(=O)O)CC[C@]3(C)[C@H](CC[C@@H]4[C@@]5(C)CC[C@H](OC(=O)CC(C)(C)C(=O)O)C(C)(C)[C@@H]5CC[C@]43C)[C@@H]12 [DSB, 3-O-(3′,3′-dimethylsuccinyl)betulinic acid]
  inhibition of HIV replication: potent inhibitor of HIV replication
